Laboratory results as given in the NIST ThermoML archive (doi:10.1016/j.tca.2015.01.022).

Assay: molar heat capacity at constant pressure
Details: 101.33 kPa, Small (less than 1 g) adiabatic calorimetry

CCCCCCCC[n+]1ccn(C)c1.F[B-](F)(F)F [1-methyl-3-octylimidazolium tetrafluoroborate]
Details | molar heat capacity at constant pressure [J/K/mol]
148.21 K, Glass | 270.7
149.81 K, Crystal | 251.1
150 K, Crystal | 251.3
150 K, Glass | 273.5
150.08 K, Crystal | 251.3
150.11 K, Glass | 273.6
151.75 K, Crystal | 253.4
152 K, Glass | 276.6
152.02 K, Crystal | 253.6
153.69 K, Crystal | 255.7
153.91 K, Glass | 279.6
153.96 K, Crystal | 255.9
155.63 K, Crystal | 258
155.81 K, Glass | 282.6
155.9 K, Crystal | 258.3
157.57 K, Crystal | 260.3
157.72 K, Glass | 285.4
157.84 K, Crystal | 260.6
159.5 K, Crystal | 262.7
159.62 K, Glass | 288.5
159.77 K, Crystal | 263
160 K, Crystal | 263.2
160 K, Glass | 289.3
161.44 K, Crystal | 265.2
161.53 K, Glass | 291.6
161.71 K, Crystal | 265.3
162.37 K, Glass | 293
163.37 K, Crystal | 267.5
163.44 K, Glass | 294.7
163.64 K, Crystal | 267.7
164.32 K, Glass | 296.1
165.31 K, Crystal | 270
165.35 K, Glass | 297.8
165.57 K, Crystal | 270.2
166.17 K, Glass | 299.2
167.24 K, Crystal | 272.5
167.26 K, Glass | 301.2
167.5 K, Crystal | 272.7
168.01 K, Glass | 302.3
169.16 K, Crystal | 275
169.17 K, Glass | 304.3
169.43 K, Crystal | 275.2
169.85 K, Glass | 305.4
170 K, Crystal | 276
170 K, Glass | 305.6
171.09 K, Crystal | 277.5
171.09 K, Glass | 307.7
171.36 K, Crystal | 277.7
171.68 K, Glass | 308.8
173 K, Glass | 311.1
173.01 K, Crystal | 280.1
173.28 K, Crystal | 280.3
173.52 K, Glass | 311.9
174.93 K, Crystal | 282.6
174.93 K, Glass | 314.5
175.2 K, Crystal | 282.9
175.35 K, Glass | 315.3
176.85 K, Crystal | 285.4
176.85 K, Glass | 318.4
177.12 K, Crystal | 285.7
177.17 K, Glass | 319.3
178.76 K, Crystal | 288.3
178.77 K, Glass | 322.6
179 K, Glass | 322.9
179.03 K, Crystal | 288.3
180 K, Crystal | 290
180 K, Glass | 325.4
180.67 K, Crystal | 291.1
180.7 K, Glass | 327.1
180.82 K, Glass | 327.4
180.94 K, Crystal | 291.4
182.58 K, Crystal | 293.9
182.63 K, Glass | 332.5
182.85 K, Crystal | 294.2
184.43 K, Glass | 338.1
184.48 K, Crystal | 296.7
184.56 K, Glass | 339
184.75 K, Crystal | 297
186.22 K, Glass | 345.5
186.38 K, Crystal | 299.8
186.48 K, Glass | 348
186.65 K, Crystal | 299.8
187.99 K, Glass | 355.9
188.27 K, Crystal | 302.6
188.39 K, Glass | 361.5
188.55 K, Crystal | 302.6
189.72 K, Glass | 373.1
190 K, Crystal | 305
190 K, Glass | 380.4
190.16 K, Crystal | 305.4
190.27 K, Liquid | 387.4
190.44 K, Crystal | 305.4
191.35 K, Liquid | 408.9
192.04 K, Crystal | 308.3
192.05 K, Liquid | 444.4
192.32 K, Crystal | 308.5
192.85 K, Liquid | 463.5
193.84 K, Liquid | 466.1
193.92 K, Crystal | 311.4
194.2 K, Crystal | 311.6
194.36 K, Liquid | 466.3
195.76 K, Liquid | 466.6
195.8 K, Crystal | 314.5
196.08 K, Crystal | 314.7
197.67 K, Crystal | 317.3
197.7 K, Liquid | 465.8
197.95 K, Crystal | 317.8
199.54 K, Crystal | 320.7
199.64 K, Liquid | 464.9
199.82 K, Crystal | 320.9
200 K, Crystal | 320
200 K, Liquid | 464.9
201.46 K, Crystal | 323.8
201.58 K, Liquid | 464.7
201.81 K, Crystal | 324.6
203.44 K, Crystal | 327.4
203.53 K, Liquid | 464.1
203.91 K, Crystal | 328.6
205.42 K, Crystal | 331.1
205.47 K, Liquid | 463.8
206.02 K, Crystal | 332.2
207.4 K, Crystal | 334.5
207.42 K, Liquid | 463.5
208.11 K, Crystal | 335.9
209.36 K, Liquid | 463.5
209.37 K, Crystal | 338.1
210 K, Crystal | 335
210 K, Liquid | 463.4
210.2 K, Crystal | 339.8
211.3 K, Liquid | 463.2
211.34 K, Crystal | 342.1
212.28 K, Crystal | 344.3
213.25 K, Liquid | 463.5
213.29 K, Crystal | 346
214.36 K, Crystal | 348
215.19 K, Liquid | 463.2
215.24 K, Crystal | 350
216.42 K, Crystal | 352.2
217.13 K, Liquid | 463.5
217.18 K, Crystal | 355
218.47 K, Crystal | 357.6
219.08 K, Liquid | 463.8
219.11 K, Crystal | 360.4
220 K, Crystal | 349.9
220 K, Liquid | 463.8
220.51 K, Crystal | 362.9
221.02 K, Crystal | 365.7
221.02 K, Liquid | 463.8
222.53 K, Crystal | 369.1
222.93 K, Crystal | 371.1
222.96 K, Liquid | 464.1
224.55 K, Crystal | 375
224.82 K, Crystal | 376.7
224.9 K, Liquid | 464.7
226.56 K, Crystal | 381
226.7 K, Crystal | 382.4
226.85 K, Liquid | 464.9
228.55 K, Crystal | 387.4
228.58 K, Crystal | 388.3
228.8 K, Liquid | 465.8
230 K, Crystal | 364.9
230 K, Liquid | 465.8
230.44 K, Crystal | 395.1
230.53 K, Crystal | 394.5
230.75 K, Liquid | 466.6
232.29 K, Crystal | 402.4
232.49 K, Crystal | 402.1
234.12 K, Crystal | 411.7
234.44 K, Crystal | 412
235.93 K, Crystal | 423.8
236.36 K, Crystal | 424.6
237.7 K, Crystal | 441.5
238.24 K, Crystal | 445.5
239.43 K, Crystal | 472
240 K, Crystal | 379.9
240 K, Liquid | 468.9
240.06 K, Crystal | 487.8
245.81 K, Crystal | 388.6
245.81 K, Liquid | 471
248.34 K, Liquid | 472
249.07 K, Liquid | 472.3
250 K, Liquid | 472.6
250.32 K, Liquid | 472.8
251 K, Liquid | 473.1
252.27 K, Liquid | 473.7
252.93 K, Liquid | 473.9
254.22 K, Liquid | 474.5
254.87 K, Liquid | 474.8
256.17 K, Liquid | 475.4
256.8 K, Liquid | 475.6
258.12 K, Liquid | 476.2
258.74 K, Liquid | 476.5
260 K, Liquid | 477.3
260.07 K, Liquid | 477.3
260.67 K, Liquid | 477.6
262.02 K, Liquid | 478.2
262.61 K, Liquid | 478.5
263.97 K, Liquid | 479.3
264.54 K, Liquid | 479.6
265.92 K, Liquid | 480.1
266.48 K, Liquid | 480.4
267.87 K, Liquid | 481.3
268.42 K, Liquid | 481.6
269.82 K, Liquid | 482.1
270 K, Liquid | 482.4
270.35 K, Liquid | 482.4
271.77 K, Liquid | 483.2
272.29 K, Liquid | 483.5
273.73 K, Liquid | 484.4
274.23 K, Liquid | 484.7
275.68 K, Liquid | 485.2
276.16 K, Liquid | 485.5
277.63 K, Liquid | 486.6
278.1 K, Liquid | 486.6
279.58 K, Liquid | 487.8
280 K, Liquid | 487.7
281.53 K, Liquid | 488.9
283.48 K, Liquid | 489.7
285.44 K, Liquid | 490.9
287.39 K, Liquid | 492
289.34 K, Liquid | 493.1
290 K, Liquid | 493.2
291.29 K, Liquid | 494.2
293.24 K, Liquid | 495.4
295.19 K, Liquid | 496.5
297.15 K, Liquid | 497.3
298.15 K, Liquid | 497.8
299.1 K, Liquid | 498.5
300 K, Liquid | 498.9
301.05 K, Liquid | 499.6
303 K, Liquid | 500.7
304.95 K, Liquid | 502.1
306.9 K, Liquid | 503
308.86 K, Liquid | 504.4
310 K, Liquid | 504.8
310.81 K, Liquid | 505.2
312.76 K, Liquid | 506.4
314.71 K, Liquid | 507.5
316.67 K, Liquid | 508.9
318.62 K, Liquid | 510
320 K, Liquid | 510.9
320.57 K, Liquid | 511.1
322.53 K, Liquid | 512.3
324.48 K, Liquid | 513.4
326.44 K, Liquid | 514.8
328.39 K, Liquid | 515.9
330 K, Liquid | 517.1
330.34 K, Liquid | 517.1
332.3 K, Liquid | 518.5
334.25 K, Liquid | 519.9
336.21 K, Liquid | 521
338.16 K, Liquid | 522.4
340 K, Liquid | 523.6
340.11 K, Liquid | 523.8
342.07 K, Liquid | 524.7
344.02 K, Liquid | 526.4
345.98 K, Liquid | 527.2
347.93 K, Liquid | 528.9
349.89 K, Liquid | 530.3
350 K, Liquid | 530.3
351.85 K, Liquid | 531.7
353.8 K, Liquid | 533.1
355.76 K, Liquid | 534.2
357.71 K, Liquid | 535.7
359.66 K, Liquid | 536.8
360 K, Liquid | 537.1
361.61 K, Liquid | 538.2
363.57 K, Liquid | 539.3
365.52 K, Liquid | 540.7
367.47 K, Liquid | 542.4
370 K, Liquid | 544.2
